Columns and labels:
Type in all cases: biochemical, Pseudomonas sp. VT1B strain (NBRC110478)
PVA-A [1] = test: Substrate specificity of PVA-oxidizing activity of PVA-A; details: substrate 1% (v/v) or saturated; activity against PVA = 100%
Experimental: (§1) To 0.5 mL of a substrate solution prepared by dissolving PVA (Reagent grade polyvinyl alcohol, polymerization degree: 2,000, Nacalai Tesque Inc., Kyoto, Japan) into 100 mM sodium phosphate buffer (pH 7.0) to give a concentration of 2% (w/v), 15 µL of 2% (w/v) of sodium azide solution was added, and then 0.5 mL of an enzyme solution is further added and reacted with shaking at 27° C. for 60 min. After the 60 min-reaction, the reaction was stopped by mixing 0.32 mL of the reaction mixture to 0.8 mL of a titanium reagent, and the yellow color, produced by reacting hydrogen peroxide formed by the enzyme reaction and the titanium reagent, was measured by measuring the absorbance at 410 nm (A410) as an index. Separately, the enzyme solution was added to the substrate solution, and the resulting mixture is immediately mixed with the titanium reagent. The resulting mixture was similarly measured its color and the value was used as the value at the reaction zero minutes. Then, the amount of the formed hydrogen peroxide is determined and the PVA-oxidizing activity is calculated based on the following formula. It is known that the absorbance at 410 nm (A410) increases by “1” when 3.65 […]mole/mL of hydrogen peroxide is formed. Therefore, in the following Formula 1, the coefficient of “3.65” has been multiplied. One unit of the PVA-oxidizing activity is defined as the amount of enzyme that forms 1 […]mole of hydrogen peroxide per min under the above conditions. Titanium reagent is prepared by diluting 5% titanium sulfate (IV) solution, commercialized by Nacalai Tesque Inc., Kyoto, Japan, 25-fold with 10% (w/w) sulfuric acid.
(§2) The substrate specificity of PVA-oxidizing activity was investigated by allowing PVA-A and PVA-B, the purified enzyme preparations obtained by the method in Experiment 2, to act on various secondary alcohols, primary alcohols and the like as substrates. In other words, the PVA-oxidizing activity of the enzymes was measured for primary alcohols having different chain length (methanol, ethanol, propanol, butanol, pentanol, hexanol, heptanol, and decanol), secondary alcohols (2-propanol, 2-pentanol, 2-hexanol, 4-heptanol, 2-octanol, 4-decanol, and 2, 4-pentanediol), and a tertiary alcohol (tert-butanol).

PVA-B [2] = test: Substrate specificity of PVA-oxidizing activity of PVA-B; details: substrate 1% (v/v) or saturated; activity against PVA = 100%
Experimental: as §1, §2

PVA-A [3] = test: Effects of various metal salts on PVA-oxidizing activity of PVA-A
Experimental: as §1
(§3) Using the purified enzyme preparations of PVA-A and PVA-B, obtained by the method of Experiment 2, effects of various metal salts on the enzyme activity were investigated according to the assay of the PVA-oxidizing activity as an index in the presence of 1 mM metal salts.

PVA-B [4] = test: Effects of various metal salts on PVA-oxidizing activity of PVA-B
Experimental: as §1, §3

PVA-A and PVA-B = test: Effects of metal salts on PVA-oxidizing activity, summary for both enzymes; details: 1 mM, in words
Experimental: as §3

[5] = PVA-oxidizing activity in the presence of 1 mM metal salts, None = 100

Compound	Relative activity (%) PVA-A (PVA-A [1]) [%]	Relative activity (%) PVA-B (PVA-B [2]) [%]	Relative activity (%) PVA-A (PVA-A [3]; [5]) [%]	Relative activity (%) PVA-B (PVA-B [4]; [5]) [%]	further results
CCCO [Propanol]	0	0			
[Ca+2].[Cl-].[Cl-] [CaCl2]			98	98	
[Cl][Fe]([Cl])[Cl] [FeCl3]			29	19	Effect on PVA-oxidizing activity (PVA-A and PVA-B): remarkably inhibited
[Cl][Hg][Cl] [HgCl2]			22	4	Effect on PVA-oxidizing activity (PVA-A and PVA-B): remarkably inhibited
Butanol	0	0			
CCCCC(C)O (stereo not shown) [2-Hexanol]	5	8			
CCCCCCC(C)O (stereo not shown) [2-Octanol]	3	6			
[Cl-].[Cl-].[Mg+2] [MgCl2]			98	104	
CCCCCO [Pentanol]	0	0			
CO [Methanol]	0	0			
[Cl][Sn][Cl] [SnCl2]			78	102	
[Cl][Mn][Cl] [MnCl2]			96	87	
[Cl-].[K+] [KCl]			93	116	
CCCCCCO [Hexanol]	0	1			
CCCC(C)O (stereo not shown) [2-Pentanol]	2	5			
CCCC(O)CCC [4-Heptanol]	21	12			
CC(C)(C)O [tert-Butanol]	0	1			
CCCCCCCCCCO [Decanol]	0	0			
[Cl-].[Na+] [NaCl]					Relative activity (%) PVA-A (PVA-A [3]): 94%; Relative activity (%) PVA-B (PVA-B [4]): 106%
[Cl][Ni][Cl] [NiCl2]			91	76	
CC(O)CC(C)O (stereo not shown) [2,4-Pentanediol]	0	0			
CCCCCCC(O)CCC (stereo not shown) [4-Decanol]	3	1			
CCCCCCCO [Heptanol]	0	1			
CC(C)O [2-Propanol]	0	1			
[Cl][Al]([Cl])[Cl] [AlCl3]			91	63	
O=C(O)CN(CCN(CC(=O)O)CC(=O)O)CC(=O)O [EDTA]			56	45	Effect on PVA-oxidizing activity (PVA-A and PVA-B): also inhibited
[Cl-].[Cl-].[Sr+2] [SrCl2]			99	101	
CCO [Ethanol]	0	0			
RbCl2			91	99	

From patent US11859229B2, “Polyvinyl alcohol-degrading enzyme and process for producing the same” (Hayashibara Co., Ltd., priority 2017, dated 2024)
